Data published in patent US20210330713A1, “HUMAN HEPATOCYTES AND USES THEREOF” (ACCELERATED BIOSCIENCES CORP., priority 2014, published 2021).
“Also recorded” adds a separate entry of the source.

What was measured:
[1] = cited from earlier work
[2] = biological target: T1, FGF receptor (FGFR) (Homo sapiens, UniProt P11362); experiment: FGFR inhibitor block of bFGF-induced PI3K by immunoblotting; format: cell-based; conditions: hTS cells, bFGF 10 ng/ml
T1 construct: endogenous in cells; host or cells: hTS cells (human trophoblast stem cells)
Experimental: (§1) For immunoblotting assay, cells were harvested into RIPA lysis solution (Millipore, Billerica, Mass.) supplemented with protease and phosphatase inhibitors (Roche). After electrophoresis of 30 μg lysates on polyacrylamide gels, electroblotting onto PDVF membranes (Millipore) was performed. After blocked by 5% non-fat milk in PBS at room temperature (1 hr), target protein was detected by using primary antibody. All membranes were incubated with chemiluminescent (Millipore) and imaging was captured by the ChemiDoc XRS system (Bio-RAD). Data were analyzed by AlphaEaseFC (version 4.0.0) system. For IP assay, Cell lysates of bFGF-treated hTS cells were collected. By incubation with protein G-agarose (Millipore) for 30 min, total protein (100 μg) was treated with specific primary antibody overnight listed in Table 1. After treating with protein G-agarose beads (2 hr), sample was washed three times with RIPA lysis buffer (Millipore), following by adding with protein loading dye and boiled for 5 min. […]
(§2) For immunoblotting assay, cells were harvested into RIPA lysis solution (Millipore, Billerica, Mass.) supplemented with protease and phosphatase inhibitors (Roche). […] After blocked by 5% non-fat milk in PBS at room temperature (1 hr), target protein was detected by using primary antibody. […] Data were analyzed by AlphaEaseFC (version 4.0.0) system. […]

[3] = system: CYP7A1; conditions: hypercholesterolemic hamsters; cited from earlier work
[4] = system: hTS cells; experiment: Hepatocytic differentiation of hTS cells after DE stage; conditions: dexamethasone 0.1 μM and oncostatin M 10 ng/ml added at 8 hr of bFGF induction, 4 days
[5] = system: CYP3A4; experiment: Functional cytochrome p450 assay by qPCR, CYP3A4; conditions: hepatocyte-like cells, rifampicin 25 μM + itraconazole 25 μM, 24 hr
[6] = system: hTS cells; experiment: bFGF induction of DE differentiation in hTS cells, DE-associated markers over time; format: cell-based, human; conditions: bFGF 10 ng/ml
Experimental: For immunoblotting assay, cells were harvested into RIPA lysis solution (Millipore, Billerica, Mass.) supplemented with protease and phosphatase inhibitors (Roche). After electrophoresis of 30 μg lysates on polyacrylamide gels, electroblotting onto PDVF membranes (Millipore) was performed. After blocked by 5% non-fat milk in PBS at room temperature (1 hr), target protein was detected by using primary antibody. All membranes were incubated with chemiluminescent (Millipore) and imaging was captured by the ChemiDoc XRS system (Bio-RAD). Data were analyzed by AlphaEaseFC (version 4.0.0) system. For IP assay, Cell lysates of bFGF-treated hTS cells were collected. By incubation with protein G-agarose (Millipore) for 30 min, total protein (100 μg) was treated with specific primary antibody overnight listed in Table 1. After treating with protein G-agarose beads (2 hr), sample was washed three times with RIPA lysis buffer (Millipore), following by adding with protein loading dye and boiled for 5 min. The sample was resolved by 8% SDS-PAGE and subjected to immunoblotting analysis.
(§3) Slides with cell culture was fixed for 30 min at room temperature in 95% (v/v) ethanol, washed three times in PBS and incubated with blocking buffer PBS containing 0.1% (wt/v) Triton X-100 (Sigma) and 5% (v/v) normal donkey serum (Millipore) for 60 min. Primary and secondary antibodies were diluted in blocking buffer. Primary antibody was incubated. After incubation with specific primary antibody in PBS at 4° C. (24 hr) or room temperature (2 hr), appropriate fluorescein isothiocyante (FITC, Invitrogen) or ALEXA FLUOR® 488, 594, and 647 (Invitrogen) or Dylight 488 and 594 (BioLegend) conjugated secondary antibody was added at room temperature (1 hr). After DAPI staining of nucleus (5 min), incubation with secondary antibody (1 hr) at room temperature, and washes, sample was mounted with 50% glycerol. Images were captured by confocal laser scanning microscopy (LSM700; Zeiss Z1 or Olympus FluoView 1000 confocal laser scanning microscope) or TissueFAXS system (TissueQnostics GmbH, Vienna, Austria). Data were analyzed by TissueQuest software.
This study was approved by the Institutional Review Board on Human Subjects Research and Ethics Committees (KMUHIRB-20140071). […] For DE differentiation, cells were carried out by a conditioned a-MEM media containing 10% FBS, 2-mercaptoethanol (1 mM), nicotinamide (10 mM), and bFGF (10 ng/ml) for 8 hr, according to the empirical studies (data not shown). […] Cells were harvested at 4-7 days for assay as indicated. Determination of stage-specific differentiation of lineages depends on the hepatic cell-associated markers in liver development.
as §3, with “Briefly, slides” for “Slides”, “DYLIGHT®” for “Dylight”, “glycerol.” for “glycerol. Images were captured by confocal laser scanning microscopy (LSM700; Zeiss Z1 or Olympus FluoView 1000 confocal laser scanning microscope) or TissueFAXS system (TissueQnostics GmbH, Vienna, Austria). Data were analyzed by TissueQuest software.”

[7] = system: PI3K/AKT/CREB1 signaling pathway; experiment: bFGF-induced PI3K/AKT/CREB1 signaling by immunoblotting; format: cell-based, human; conditions: bFGF 10 ng/ml, 4 hr induction, hTS cells
Experimental: as §1, §2

[8] = system: miR-124a; experiment: miR-124a expression in hTS cells by qPCR; format: cell-based, human; conditions: bFGF induction, DE stage
Text: U6 snRNA (RNU6B; Applied Biosystems) served as an endogenous control.

T1 sequence (P11362 22-822): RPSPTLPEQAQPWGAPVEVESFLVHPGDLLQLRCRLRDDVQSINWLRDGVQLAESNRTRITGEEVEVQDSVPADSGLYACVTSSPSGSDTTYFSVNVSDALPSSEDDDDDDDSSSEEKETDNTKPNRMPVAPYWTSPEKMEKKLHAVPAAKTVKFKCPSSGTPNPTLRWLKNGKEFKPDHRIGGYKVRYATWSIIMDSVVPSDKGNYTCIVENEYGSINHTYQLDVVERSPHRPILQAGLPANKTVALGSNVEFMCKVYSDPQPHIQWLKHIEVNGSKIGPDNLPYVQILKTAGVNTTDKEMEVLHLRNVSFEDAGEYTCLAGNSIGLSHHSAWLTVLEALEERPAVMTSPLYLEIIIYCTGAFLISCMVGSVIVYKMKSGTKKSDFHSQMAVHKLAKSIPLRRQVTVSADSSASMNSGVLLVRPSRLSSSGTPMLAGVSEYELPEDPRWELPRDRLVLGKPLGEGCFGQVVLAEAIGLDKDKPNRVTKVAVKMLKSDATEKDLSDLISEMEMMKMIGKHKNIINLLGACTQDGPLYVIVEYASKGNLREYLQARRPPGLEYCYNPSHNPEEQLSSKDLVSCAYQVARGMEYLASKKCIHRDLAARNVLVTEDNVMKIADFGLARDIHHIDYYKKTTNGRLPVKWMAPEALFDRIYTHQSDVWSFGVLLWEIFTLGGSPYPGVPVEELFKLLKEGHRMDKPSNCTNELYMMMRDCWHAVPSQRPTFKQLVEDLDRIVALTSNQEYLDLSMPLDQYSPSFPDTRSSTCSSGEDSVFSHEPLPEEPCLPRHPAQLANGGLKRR

ClC(Cl)(Cl)Cl [CCl4, carbon tetrachloride]
half-live in blood [1]: 24 h

COc1cc(OC)cc(-c2cc3cnc(N)nc3nc2NC(=O)NC(C)(C)C)c1 [PD166866]
bFGF-induced activation of PI3K [2]: block

CC(=O)c1c(O)cc(O)cc1O [THA]
CYP7A1 activity and mRNA expression [3]: promotes both CYP7A1 activity and mRNA expression | plasma cholesterol and triglyceride [3]: reduce both plasma cholesterol and triglyceride

C[C@@H]1C[C@H]2[C@@H]3CCC4=CC(=O)C=C[C@]4(C)[C@@]3(F)[C@@H](O)C[C@]2(C)[C@@]1(O)C(=O)CO [dexamethasone]
differentiation to hepatocyte-like cells expressing hepatic markers [4]: resulted in the differentiation of hepatocyte-like cells

CCC(C)n1ncn(-c2ccc(N3CCN(c4ccc(OCC5COC(Cn6cncn6)(c6ccc(Cl)cc6Cl)O5)cc4)CC3)cc2)c1=O (stereo not shown) [itraconazole]
inducer-induced CYP3A4 mRNA in response to inhibitor [5]: reduced

bFGF: basic fibroblast growth factor, used at 10 ng/ml to induce DE differentiation of hTS cells
SOX17 levels at peak ([6]; 2 hr, immunoblotting): 1.5 fold | intensity of Mixl1, nadir lower than the native one ([6]; 4 hr, TissueFAX analysis): ~50% | MIXL1 levels, nadir lower than the native one ([6]; 4 hr, immunoblotting): ~50% | DE formation ([6]; 8 hr induction): efficiently yield DE; also recorded: rapidly differentiate hTS cells to DE stage | FOXA2 highest levels ([6]; 8 hr, immunoblotting): 3 fold | activation of the PI3K/AKT1/CREB1 signaling pathway [7]: induces activation | time of peak miR-124a expression [8]: 4 h
